Test systems include UACC-62; SF-295; MCF7; SK-MEL-2; Malme-3M; A549; OVCAR-4; COLO 205; HCT-15; 786-0; NCI-H226; ACHN; HT-29; SNB-75; A498; CCRF-CEM; KM12; LOX IMVI; MDA-MB-231; SR.
Common to all, as to assay: NCI tumour cell line growth inhibition, 48 h

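Test compounds were applied to cells in 96-well plates for 48 hours at 5 doses. Here, GI50 denotes the concentration required for 50% inhibition of growth.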 Calls of active or inactive are those of the source. Cut-off read from the data, not from the text of the source: active = GI50 up to about 1.1 µM and inactive = higher. Where a SMILES comes first, the peptide text is derived from it. Bridges are numbered along the chain shown (N, C = ends). [ ]: non-standard residue; d: D form. The star is where a group is joined. ξ: configuration not given here. X28 = O=C(/C=C/C=C/C=C/C=C/C=C/C(=O)*)NC1=C(O)CCC1=O; NMeA = CN[C@@H](C)C(=O)O; ξF = NC(Cc1ccccc1)C(=O)O; ξA = CC(N)C(=O)O

Take `CC(C)CNCCc1ccccn1`: the GI50 in the experiment on UACC-62, with SF-295, in the experiment with MCF7, in the experiment on SK-MEL-2, in the experiment on Malme-3M and in the experiment on A549 was > 100 µM (inactive) throughout. For the same compound, the GI50 was > 100 µM (inactive) in the experiment with OVCAR-4; > 100 µM (inactive) in the experiment on COLO 205; over 100 µM with HCT-15; > 100 µM (inactive) with 786-0; > 100 µM (inactive) in the experiment on NCI-H226; > 100 µM (inactive) with ACHN. Besides, the GI50 in the experiment on HT-29, in the experiment on SNB-75, in the experiment with A498, in the experiment with CCRF-CEM, with KM12 and with LOX IMVI was > 100 µM (inactive) throughout. For the same compound, the GI50 with MDA-MB-231 was > 100 µM (inactive).
Turning to `NS(=O)(=O)c1ccc(NNC(=O)c2cccc3c(=O)c4ccccc4[nH]c23)cc1`, the GI50 with UACC-62 is 88.5 µM (inactive); with SF-295 it was 91 µM (inactive); in the experiment with MCF7 it was 34 µM (inactive); in the experiment on SK-MEL-2, > 100 µM (inactive); in the experiment on Malme-3M, 78.3 µM (inactive); in the experiment with A549, > 100 µM (inactive). Besides, the GI50 in the experiment with OVCAR-4 was 61.8 µM (inactive); in the experiment on COLO 205, > 100 µM (inactive); with HCT-15, 62.8 µM; with 786-0, > 100 µM (inactive); in the experiment with NCI-H226 it was > 100 µM (inactive); in the experiment on ACHN, 91.6 µM (inactive). In addition, the GI50 with HT-29 is 66.8 µM (inactive); in the experiment on SNB-75, > 100 µM (inactive); in the experiment on CCRF-CEM it was 46.1 µM (inactive); in the experiment on KM12, 42.1 µM (inactive); in the experiment with LOX IMVI, 30.1 µM (inactive); in the experiment on SR, 49.8 µM (inactive). Moreover, the GI50 with MDA-MB-231 was 51.6 µM (inactive).
Take `O=S(=O)(O)c1ccc2c(/N=N/c3ccc(/N=N/c4ccccc4)cc3)c(O)c(S(=O)(=O)O)cc2c1`: the GI50 in the experiment on UACC-62, in the experiment on SF-295, with MCF7, in the experiment with SK-MEL-2, in the experiment with Malme-3M and with A549 was > 100 µM (inactive) throughout. Moreover, the GI50 was > 100 µM (inactive) in the experiment with OVCAR-4; > 100 µM (inactive) in the experiment on COLO 205; over 100 µM in the experiment on HCT-15; > 100 µM (inactive) in the experiment on 786-0; > 100 µM (inactive) in the experiment with NCI-H226; > 100 µM (inactive) in the experiment with ACHN. In addition, the GI50 with HT-29, with CCRF-CEM, in the experiment with KM12, in the experiment on SR and in the experiment on MDA-MB-231 was > 100 µM (inactive) in each case.
On to `O=C1OC(C2Cc3ccccc3C2=O)c2ccccc21` (stereo unspecified), for which the GI50 in the experiment on UACC-62, in the experiment with SF-295, in the experiment on MCF7, in the experiment with SK-MEL-2, with Malme-3M and with A549 was > 100 µM (inactive) in each case. Further, the GI50 in the experiment on OVCAR-4 was > 100 µM (inactive); in the experiment on COLO 205 it was > 100 µM (inactive); in the experiment on HCT-15, over 100 µM; in the experiment with 786-0 it was > 100 µM (inactive); with NCI-H226, > 100 µM (inactive); in the experiment on ACHN, > 100 µM (inactive). In addition, the GI50 is 26.1 µM (inactive) in the experiment on HT-29; > 100 µM (inactive) with SNB-75; > 100 µM (inactive) in the experiment with CCRF-CEM; > 100 µM (inactive) in the experiment on KM12; 99.1 µM (inactive) with LOX IMVI; > 100 µM (inactive) with SR. In addition, in the experiment on MDA-MB-231, the GI50 was > 100 µM (inactive).
Take `COc1cc(-c2coc3c(OC)c(OC4OC(CO)C(O)C(O)C4O)c(OC)cc3c2=O)cc(OC)c1C` (stereo unspecified): the GI50 in the experiment on UACC-62 was 4.42 µM (inactive); with SF-295, 11.7 µM (inactive); with MCF7 it was 3.66 µM (inactive); in the experiment on SK-MEL-2, 16.1 µM (inactive); with Malme-3M it was 15.3 µM (inactive); with A549 it was 7.13 µM (inactive). In addition, the GI50 was 13.1 µM (inactive) in the experiment on OVCAR-4; 17.9 µM (inactive) in the experiment with COLO 205; 3.66 µM in the experiment on HCT-15; 1.28 µM (inactive) in the experiment on 786-0; 25.7 µM (inactive) in the experiment on NCI-H226; 7.55 µM (inactive) with ACHN. Further, the GI50 was 7.03 µM (inactive) in the experiment on HT-29; 6.22 µM (inactive) in the experiment on SNB-75; 3.75 µM (inactive) in the experiment with CCRF-CEM; 4.79 µM (inactive) in the experiment on KM12; 3.37 µM (inactive) in the experiment on LOX IMVI; 4.35 µM (inactive) with SR. The GI50 in the experiment on MDA-MB-231 was 15.1 µM (inactive).
As for `CCC(c1ccc(OC)cc1)C1NC(=S)NC1=O` (stereo unspecified), the GI50 with SF-295, with MCF7, with SK-MEL-2, in the experiment with Malme-3M, with A549 and in the experiment with OVCAR-4 was > 50 µM (inactive) throughout. Also, the GI50 in the experiment with COLO 205 was > 50 µM (inactive); with HCT-15 it was over 50 µM; in the experiment on 786-0, > 50 µM (inactive); in the experiment with NCI-H226, > 50 µM (inactive); in the experiment on ACHN it was > 50 µM (inactive); in the experiment with HT-29 it was > 50 µM (inactive). For the same compound, the GI50 in the experiment with SNB-75, in the experiment on A498, in the experiment on CCRF-CEM, in the experiment with KM12, in the experiment on LOX IMVI and in the experiment on MDA-MB-231 was > 50 µM (inactive) throughout.
As to `Cc1cc2nc3c(C#N)c(-c4ccccc4)cc(Nc4ccc(Cl)cc4)n3c2cc1C`, the GI50 with SF-295, with MCF7, with SK-MEL-2, in the experiment with Malme-3M, in the experiment on A549 and with OVCAR-4 was > 100 µM (inactive) throughout. Moreover, the GI50 in the experiment with COLO 205 was > 100 µM (inactive); with HCT-15, over 100 µM; with 786-0 it was > 100 µM (inactive); in the experiment on NCI-H226 it was > 100 µM (inactive); in the experiment on ACHN it was > 100 µM (inactive); in the experiment with SNB-75, > 100 µM (inactive). The GI50 in the experiment on A498 was > 100 µM (inactive); with CCRF-CEM, 4.53 µM (inactive); in the experiment on KM12, 59.4 µM (inactive); in the experiment with LOX IMVI it was > 100 µM (inactive); in the experiment on MDA-MB-231 it was > 100 µM (inactive).
On to `Nc1nc2ccc(Sc3ccc4nc(N)[nH]c(=O)c4c3)cc2c(=O)[nH]1`, for which the GI50 with UACC-62 is > 100 µM (inactive); with SF-295, 59.2 µM (inactive); in the experiment with MCF7, > 100 µM (inactive); with SK-MEL-2, > 100 µM (inactive); in the experiment with Malme-3M, > 100 µM (inactive); in the experiment on A549 it was > 100 µM (inactive). In addition, the GI50 in the experiment with OVCAR-4 is > 100 µM (inactive); with COLO 205 it was > 100 µM (inactive); in the experiment on HCT-15, over 100 µM; in the experiment with 786-0 it was > 100 µM (inactive); with NCI-H226, 14.1 µM (inactive); in the experiment with ACHN it was > 100 µM (inactive). The GI50 in the experiment on HT-29 was > 100 µM (inactive); in the experiment on SNB-75 it was > 100 µM (inactive); in the experiment with CCRF-CEM, > 100 µM (inactive); in the experiment with KM12 it was > 100 µM (inactive); in the experiment with SR, > 100 µM (inactive); with MDA-MB-231, 67.3 µM (inactive).
As to `CC(=O)O[C@@H]1[C@H]2O[C@H]2[C@H]2O[C@@]2(COC(=O)c2ccccc2)[C@H]1OC(C)=O`, the GI50 in the experiment with UACC-62, with SF-295, in the experiment with MCF7, with SK-MEL-2, with Malme-3M and in the experiment with A549 was > 100 µM (inactive) each time. Besides, the GI50 is > 100 µM (inactive) with OVCAR-4; > 100 µM (inactive) in the experiment with COLO 205; over 100 µM with HCT-15; > 100 µM (inactive) with 786-0; > 100 µM (inactive) in the experiment on NCI-H226; 16.9 µM (inactive) with ACHN. Further, the GI50 in the experiment with HT-29, with SNB-75, in the experiment on A498, with CCRF-CEM, with KM12 and with LOX IMVI was > 100 µM (inactive) each time. For the same compound, the GI50 in the experiment on MDA-MB-231 is > 100 µM (inactive).
As for `CC1NC(=O)[C@H](C)N(C)C(=O)[C@@H]2CCCN2C(=O)[C@@H](NC(=O)C(Cc2ccccc2)NC(=O)/C=C/C=C/C=C/C=C/C=C/C(=O)NC2=C(O)CCC2=O)COC(=O)[C@@H]2CCCN2C1=O` (stereo partly specified) (X28-[ξF]SP[NMeA][ξA]P; ester 2-C), the GI50 in the experiment with UACC-62, in the experiment with SF-295, in the experiment with MCF7, in the experiment with SK-MEL-2, with Malme-3M and with A549 was > 100 µM (inactive) in each case. Further, the GI50 in the experiment with OVCAR-4 was > 100 µM (inactive); in the experiment with COLO 205 it was > 100 µM (inactive); with HCT-15, over 100 µM; with 786-0 it was > 100 µM (inactive); with ACHN, > 100 µM (inactive); in the experiment on HT-29, > 100 µM (inactive). The GI50 was 64.3 µM (inactive) in the experiment on SNB-75; > 100 µM (inactive) in the experiment on CCRF-CEM; 58.9 µM (inactive) in the experiment with KM12; > 100 µM (inactive) in the experiment on LOX IMVI; 79.3 µM (inactive) in the experiment with SR; 22.7 µM (inactive) with MDA-MB-231.
On to `Clc1ccc(-c2c3nc(c(-c4ccc(Cl)cc4)c4ccc([nH]4)c(-c4ccc(Cl)cc4)c4nc(c(-c5ccc(Cl)cc5)c5ccc2[nH]5)C=C4)C=C3)cc1`, for which the GI50 was > 100 µM (inactive) in the experiment on UACC-62; > 100 µM (inactive) with SF-295; > 100 µM (inactive) with MCF7; > 100 µM (inactive) with SK-MEL-2; 70.8 µM (inactive) with Malme-3M; > 100 µM (inactive) in the experiment on A549. The GI50 is > 100 µM (inactive) in the experiment on OVCAR-4; > 100 µM (inactive) with COLO 205; over 100 µM in the experiment with HCT-15; > 100 µM (inactive) with 786-0; > 100 µM (inactive) in the experiment with ACHN; > 100 µM (inactive) in the experiment on HT-29. Also, the GI50 in the experiment on SNB-75 is 20.8 µM (inactive); in the experiment on CCRF-CEM, > 100 µM (inactive); in the experiment on KM12, > 100 µM (inactive); in the experiment with LOX IMVI, > 100 µM (inactive); with SR it was > 100 µM (inactive); in the experiment on MDA-MB-231, > 100 µM (inactive).

The values are drawn from ChEMBL document CHEMBL1201862, “PubChem BioAssay data set” (2004).
